# Measurements taken from patent US20050009840A1 (SUGEN, INC., priority 2003, published 2005).
# Target: T1, Met kinase domain (GST fusion protein) (Homo sapiens, UniProt P08581)
# T1 construct: Purified GST fusion protein containing the Met kinase domain
# Assay: Met transphosphorylation assay (ELISA, poly(glu-tyr) substrate);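 also: Cell-free ELISA with plate-bound poly(Glu:Tyr 4:1) phosphorylated by GST-fused Met kinase domain plus ATP and Mn2+, phosphotyrosine detected by anti-phosphotyrosine antibody with HRP and ABTS read-out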
# Type: biochemical
# Details: plain numbers in column Met IC50 (μM) of Table 2; read-out: Met IC50
# T1 sequence (P08581 1078-1345 limits assumed): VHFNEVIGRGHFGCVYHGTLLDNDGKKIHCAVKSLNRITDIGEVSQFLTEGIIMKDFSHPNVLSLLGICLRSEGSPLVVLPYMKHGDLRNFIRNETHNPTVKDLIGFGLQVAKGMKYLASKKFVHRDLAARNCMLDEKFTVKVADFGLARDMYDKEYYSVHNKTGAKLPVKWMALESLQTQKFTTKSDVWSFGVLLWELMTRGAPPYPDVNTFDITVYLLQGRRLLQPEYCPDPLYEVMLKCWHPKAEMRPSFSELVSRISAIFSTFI
row,SMILES,IC50
1,"CC(Oc1cc(-c2cccc(C(=O)N3CCC[C@H]3CN3CCCC3)c2)cnc1N)c1c(Cl)cccc1Cl (stereo partly drawn) [Example I-391, (3-{6-Amino-5-[1-(2,6-dichloro-phenyl)-ethoxy]-pyridin-3-yl}-phenyl)-((S)-2-pyrrolidin-1-ylmethyl-pyrrolidin-1-yl)-methanone]",0.098 µM
2,"CC(Oc1cc(-c2cccc(C(=O)NCCCN3CCCC3)c2)cnc1N)c1c(Cl)cccc1Cl (stereo not shown) [Example I-392, 3-{6-Amino-5-[1-(2,6-dichloro-phenyl)-ethoxy]-pyridin-3-yl}-N-(3-pyrrolidin-1-yl-propyl)-benzamide]",0.072 µM
3,"CC(=O)N1CCN(CCNC(=O)c2cccc(-c3cnc(N)c(OC(C)c4c(Cl)cccc4Cl)c3)c2)CC1 (stereo not shown) [Example I-393, N-[2-(4-Acetyl-piperazin-1-yl)-ethyl]-3-{6-amino-5-[1-(2,6-dichloro-phenyl)-ethoxy]-pyridin-3-yl}-benzamide]",0.079 µM
4,"CC(Oc1cc(-c2cccc(C(=O)NC3CCN(C)CC3)c2)cnc1N)c1c(Cl)cccc1Cl (stereo not shown) [Example I-394, 3-{6-Amino-5-[1-(2,6-dichloro-phenyl)-ethoxy]-pyridin-3-yl}-N-(1-methyl-piperidin-4-yl)-benzamide]",0.061 µM
5,"CC(Oc1cc(-c2cccc(C(=O)N3CCN(C)CC3)c2)cnc1N)c1c(Cl)cccc1Cl (stereo not shown) [Example I-395, (3-{6-amino-5-[1-(2,6-dichloro-phenyl)-ethoxy]-pyridin-3-yl}-phenyl)-(4-methyl-piperazin-1-yl)-methanone]",0.058 µM
6,"CC(Oc1cc(-c2cccc(C(=O)N3CCC[C@@H]3CN3CCCC3)c2)cnc1N)c1c(Cl)cccc1Cl (stereo partly drawn) [Example I-396, (3-{6-Amino-5-[1-(2,6-dichloro-phenyl)-ethoxy]-pyridin-3-yl}-phenyl)-((R)-2-pyrrolidin-1-ylmethyl-pyrrolidin-1-yl)-methanone]",0.18 µM
7,"CC(Oc1cc(-c2cccc(C(=O)N3CC[C@H](N)C3)c2)cnc1N)c1c(Cl)cccc1Cl (stereo partly drawn) [Example I-397, (3-{6-Amino-5-[1-(2,6-dichloro-phenyl)-ethoxy]-pyridin-3-yl}-phenyl)-((S)-3-amino-pyrrolidin-1-yl)-methanone]",0.055 µM
8,"CC(Oc1cc(-c2cccc(C(=O)N3CC[C@@H](N)C3)c2)cnc1N)c1c(Cl)cccc1Cl (stereo partly drawn) [Example I-398, (3-{6-Amino-5-[1-(2,6-dichloro-phenyl)-ethoxy]-pyridin-3-yl}-phenyl)-((R)-3-amino-pyrrolidin-1-yl)-methanone]",0.072 µM
9,"CC(Oc1cc(-c2ccc(C(=O)NCCN3CCOCC3)cc2)cnc1N)c1c(Cl)cccc1Cl (stereo not shown) [Example I-401, 4-{6-Amino-5-[1-(2,6-dichloro-phenyl)-ethoxy]-pyridin-3-yl}-N-(2-morpholin-4-yl-ethyl)-benzamide]",0.073 µM
10,"CC(Oc1cc(-c2ccc(C(=O)NC3CCN(C)CC3)cc2)cnc1N)c1c(Cl)cccc1Cl (stereo not shown) [Example I-403, 4-{6-Amino-5-[1-(2,6-dichloro-phenyl)-ethoxy]-pyridin-3-yl}-N-(1-methyl-piperidin-4-yl)-benzamide]",0.062 µM
11,"CC(Oc1cc(-c2ccc(C(=O)N3C[C@@H](C)N[C@@H](C)C3)cc2)cnc1N)c1c(Cl)cccc1Cl (stereo partly drawn) [Example I-404, (4-{6-Amino-5-[1-(2,6-dichloro-phenyl)-ethoxy]-pyridin-3-yl}-phenyl)-((3R,5S)-3,5-dimethyl-piperazin-1-yl)-methanone]",0.052 µM
12,"CC(=O)N1CCN(CCNC(=O)c2ccc(-c3cnc(N)c(OC(C)c4c(Cl)cccc4Cl)c3)cc2)CC1 (stereo not shown) [Example I-405, N-[2-(4-Acetyl-piperazin-1-yl)-ethyl]-4-{6-amino-5-[1-(2,6-dichloro-phenyl)-ethoxy]-pyridin-3-yl}-benzamide]",0.062 µM
13,"CC(Oc1cc(-c2ccc(C(=O)NCCCN3CCCC3)cc2)cnc1N)c1c(Cl)cccc1Cl (stereo not shown) [Example I-406, 4-{6-Amino-5-[1-(2,6-dichloro-phenyl)-ethoxy]-pyridin-3-yl}-N-(3-pyrrolidin-1-yl-propyl)-benzamide]",0.061 µM
14,"CC(Oc1cc(-c2ccc(C(=O)N3CC[C@H](N)C3)cc2)cnc1N)c1c(Cl)cccc1Cl (stereo partly drawn) [Example I-407, (4-{6-Amino-5-[1-(2,6-dichloro-phenyl)-ethoxy]-pyridin-3-yl}-phenyl)-((S)-3-aminopyrrolidin-1-yl)-methanone]",0.05 µM
15,"CC(Oc1cc(-c2ccc(C(=O)N3CC[C@@H](N)C3)cc2)cnc1N)c1c(Cl)cccc1Cl (stereo partly drawn) [Example I-408, (4-{6-Amino-5-[1-(2,6-dichloro-phenyl)-ethoxy]-pyridin-3-yl}-phenyl)-((R)-3-amino-pyrrolidin-1-yl)-methanone]",0.049 µM
16,"CC(Oc1cc(-c2ccc(C(=O)N3CCC(N4CCCC4)CC3)cc2)cnc1N)c1c(Cl)cccc1Cl (stereo not shown) [Example I-410, (4-{6-Amino-5-[1-(2,6-dichloro-phenyl)-ethoxy]-pyridin-3-yl}-phenyl)-(4-pyrrolidin-1-yl-piperidin-1-yl)-methanone]",0.055 µM
17,"CC(Oc1cc(-c2ccc(C(=O)N3CCN(C)CC3)cc2)cnc1N)c1c(Cl)cccc1Cl (stereo not shown) [Example I-411, (4-{6-Amino-5-[1-(2,6-dichloro-phenyl)-ethoxy]-pyridin-3-yl}-phenyl)-(4-methyl-piperazin-1-yl)-methanone]",0.053 µM
18,"CC(Oc1cc(C#CCNC(=O)N2CCC(N3CCCC3)CC2)cnc1N)c1c(Cl)ccc(F)c1Cl (stereo not shown) [Example I-414, 4-Pyrrolidin-1-yl-piperidine-1-carboxylic acid (3-{6-amino-5-[1-(2,6-dichloro-3-fluoro-phenyl)-ethoxy]-pyridin-3-yl}-prop-2-ynyl)-amide]",0.058 µM
19,"CC(Oc1cc(C#CCNC(=O)N2C[C@@H](C)N[C@@H](C)C2)cnc1N)c1c(Cl)ccc(F)c1Cl (stereo partly drawn) [Example I-415, (3R,5S)-3,5-Dimethyl-piperazine-1-carboxylic acid (3-{6-amino-5-[1-(2,6-dichloro-3-fluoro-phenyl)-ethoxy]-pyridin-3-yl}-prop-2-ynyl)-amide]",0.063 µM
20,"CC(Oc1cc(C#CCNC(=O)NCCCN2CCOCC2)cnc1N)c1c(Cl)ccc(F)c1Cl (stereo not shown) [Example I-420, 1-(3-{6-Amino-5-[1-(2,6-dichloro-3-fluoro-phenyl)-ethoxy]-pyridin-3-yl}-prop-2-ynyl)-3-(3-morpholin-4-yl-propyl)-urea]",0.064 µM
21,"CC(Oc1cc(C#CCN(C)C)cnc1N)c1c(Cl)ccc(F)c1Cl (stereo not shown) [Example I-422, 3-[1-(2,6-Dichloro-3-fluoro-phenyl)-ethoxy]-5-(3-dimethylamino-prop-1-ynyl)-pyridin-2-ylamine]",0.071 µM

# Now from value to compound:
row,IC50,SMILES
1,0.067 µM,"CC(Oc1cc(C#CCNC(=O)N2CCC[C@H]2CN2CCCC2)cnc1N)c1c(Cl)ccc(F)c1Cl (stereo partly drawn) [Example I-412, (S)-2-Pyrrolidin-1-ylmethyl-pyrrolidine-1-carboxylic acid (3-{6-amino-5-[1-(2,6-dichloro-3-fluoro-phenyl)-ethoxy]-pyridin-3-yl}-prop-2-ynyl)-amide]"
2,0.056 µM,"CC(Oc1cc(C#CCNC(=O)N2CCN(C)CC2)cnc1N)c1c(Cl)ccc(F)c1Cl (stereo not shown) [Example I-413, 4-Methyl-piperazine-1-carboxylic acid (3-{6-amino-5-[1-(2,6-dichloro-3-fluoro-phenyl)-ethoxy]-pyridin-3-yl}-prop-2-ynyl)-amide]"
3,0.051 µM,"CC(Oc1cc(C#CCNC(=O)NC2CCN(C)CC2)cnc1N)c1c(Cl)ccc(F)c1Cl (stereo not shown) [Example I-416, 1-(3-{6-Amino-5-[1-(2,6-dichloro-3-fluoro-phenyl)-ethoxy]-pyridin-3-yl}-prop-2-ynyl)-3-(1-methyl-piperidin-4-yl)-urea]"
4,0.062 µM,"CC(Oc1cc(C#CCNC(=O)NCCCN2CCCC2)cnc1N)c1c(Cl)ccc(F)c1Cl (stereo not shown) [Example I-417, 1-(3-{6-Amino-5-[1-(2,6-dichloro-3-fluoro-phenyl)-ethoxy]-pyridin-3-yl}-prop-2-ynyl)-3-(3-pyrrolidin-1-yl-propyl)-urea]"
5,0.052 µM,"CC(Oc1cc(C#CCNC(=O)NCCN2CCCC2)cnc1N)c1c(Cl)ccc(F)c1Cl (stereo not shown) [Example I-418, 1-(3-{6-Amino-5-[1-(2,6-dichloro-3-fluoro-phenyl)-ethoxy]-pyridin-3-yl}-prop-2-ynyl)-3-(2-pyrrolidin-1-yl-ethyl)-urea]"
6,0.055 µM,CC(Oc1cc(C#CCNC(=O)NCCN2CCOCC2)cnc1N)c1c(Cl)ccc(F)c1Cl (stereo not shown) [Example I-419]
7,0.071 µM,CC(Oc1cc(C#CCNC(=O)N2CCC[C@@H]2CN2CCCC2)cnc1N)c1c(Cl)ccc(F)c1Cl (stereo partly shown) [Example I-421]
8,0.062 µM,"CC(Oc1cc(C#CCNC(N)=O)cnc1N)c1c(Cl)ccc(F)c1Cl (stereo not shown) [Example I-423, (3-{6-Amino-5-[1-(2,6-dichloro-3-fluoro-phenyl)-pnlethoxy]-pyridin-3-yl}-prop-2-ynyl)-area]"
9,0.016 µM,"CC(Oc1cc(C#CCNC(=O)CN2CCCCC2)cnc1N)c1c(Cl)ccc(F)c1Cl (stereo not shown) [Example I-424, N-(3-{6-Amino-5-[1-(2,6-dichloro-3-fluoro-phenyl)-ethoxy]-pyridin-3-yl}-prop-2-ynyl)-2-piperidin-1- -yl-acetamide]"
10,0.027 µM,"CC(Oc1cc(C#CCNC(=O)CN2CCOCC2)cnc1N)c1c(Cl)ccc(F)c1Cl (stereo not shown) [Example I-425, N-(3-{6-Amino-5-[1-(2,6-dichloro-3-fluoro-phenyl)-ethoxy]-pyridin-3-yl}-prop-2-ynyl)-2-morpholin-4-yl-acetamide]"
11,0.0091 µM,"CC(Oc1cc(C#CCNC(=O)CN2CCCC2)cnc1N)c1c(Cl)ccc(F)c1Cl (stereo not shown) [Example I-426, N-(3-{8-Amino-5-[1-(2,6-dichloro-3-fluoro-phenyl)-ethoxy]-pyridin-3-yl}-prop-2-ynyl)-2-pyrrolidin-1-yl-acetamide]"
12,0.011 µM,"CC(Oc1cc(C#CCNC(=O)CN2CC[C@@H](O)C2)cnc1N)c1c(Cl)ccc(F)c1Cl (stereo partly drawn) [Example I-427, N-(3-{6-Amino-5-[1-(2,6-dichloro-3-fluoro-phenyl)-ethoxy]-pyridin-3-yl}-prop-2-ynyl)-2-((R)-3-hydroxy-pyrrolidin-1-yl)-acetamide]"
13,0.012 µM,"CC(Oc1cc(C#CCNC(=O)CN2CCC(O)CC2)cnc1N)c1c(Cl)ccc(F)c1Cl (stereo not shown) [Example I-428, N-(3-{6-Amino-5-[1-(2,6-dichloro-3-fluoro-phenyl)-ethoxy]-pyridin-3-yl}-prop-2-ynyl)-2-(4-hydroxy-piperidin-1-yl)-acetamide]"
